From patent US12345641B2, “Fluorescence quenching immunoassay” (IDEXX Laboratories, Inc., priority 2020, dated 2025)
Each block holds one compound with its values, some of them ahead of it.

Assays:
α-cortisol antibodies = assay: Fluorescence quenching of cortisol-4-Fl with cortisol antibody (Example 28); format: binding
Procedure: The cortisol-4-FL was combined with various equivalents of various a-cortisol antibodies commercially available from HyTest (of Turku, Finland), Abcam (of Cambridge, United Kingdom), and Bio-Connect BV (Fitzgerald Industries) (of the Netherlands). The fluorescence was measured as a function of the ratio of antibody (Ab) to cortisol-4-FL. The results are depicted in FIG. 21.

streptavidin = streptavidin (Streptomyces avidinii, UniProt P22629); assay: Fluorescence of Biotin-F or Biotin-ED in the presence of streptavidin (Example 19); format: binding; settings: saturation point, 1:1 molar ratio streptavidin to tracer
Procedure: Biotin-F or Biotin-ED (commercially available from Thermo Scientific of Waltham, MA) was dissolved in DMSO to provide a DMSO solution (8.5 μM). The structure of biotin ED is
The DMSO solution was then diluted with PBS to provide a solution having a Biotin-F or Biotin-ED concentration of 100 nM. 20 μL aliquots of the resulting Biotin-F or Biotin-ED solution in PBS was then added to the wells of a 96 well black assay plate. Solutions of streptavidin in PBS having a streptavidin concentration ranging from 0 to 100 nM were prepared and added (180 μL) to the Biotin-F or Biotin-ED solution in the plate. The plate was incubated for 30 min at room temperature and the fluorescence intensities then recorded.

α-Cholic Acid antibody = assay: Fluorescence quenching of CA-Fl with anti-cholic acid antibody in PBS (Example 41); format: binding
Procedure: A working solution of CA-Fl in PBS (100 nM) was prepared. The working solution was then combined with various equivalents of α-Cholic Acid antibody (1:1, v/v) (commercially available from Fitzgerald Industries of the Netherlands). The fluorescence was measured as a function of the ratio of antibody (Ab) to CA-Fl. The results are depicted in FIG. 33. […] The higher the ratio of antibody to CA-Fl tracer, the greater the amount of quenching.

[1] = tested on: anti-cefotaxime polyclonal antibody; assay: Fluorescence of CEF-F with anti-cefotaxime antibody (Example 25); format: binding; settings: tracer and antibody 200 nM
Procedure: Beta lactam antibiotics conjugated to fluorescein (i.e., AMO-FITC, AMO-F, AMP-F, and CEF-F) in PBS (400 nM, 100 μL) were mixed with either anti-penicillin or anti-cefotaxime polyclonal antibody (400 nM, 100 μL, commercially available from Novus Biologicals, LLC of Centennial, CO) in the absence of and in the presence of free beta-lactam antibiotic (ampicillin (400 nM) was added to AMP-F and cefotaxime (400 nM) was added to CEF-F) in a 96 well black assay plate. […] The solutions were incubated at room temperature for 5 min and the fluorescence intensity measured.

Anti-Mel-Ab = assay: Fluorescence of Mel-F and Anti-Mel-Ab in PBS, serum and diluted serum with and without melamine (Example 17); format: binding; settings: each solution: PBS, canine serum, serum diluted 1 in 10
Procedure: To a solution of Mel-F in PBS (1 μM, 6 μL) and to a mixture of Mel-F in PBS (1 μM, 6 μL) and Anti-Mel-Ab (1 μM, 6 μL) in the absence of and in the presence of melamine (2 μM, 6 μL) was added PBS, serum, or diluted serum (i.e., serum diluted 1 in 10 with PBS) to provide a final volume of 200 μL.

[2] = tested on: Polyclonal anti-melamine antibody (Anti-Mel-Ab); assay: Fluorescence of mixtures of melamine fluorescent tracers and anti-melamine antibody (Example 15); format: binding; settings: tracer 30 nM, Anti-Mel-Ab 0 to 300 nM, PBS, ex 490 nm/em 520 nm
Procedure: Various substituted fluorescent tracers wherein melamine is conjugated to fluorescein were dissolved in DMSO (1 mM) and diluted in phosphate buffered saline (PBS) (pH=7.3) to provide a melamine tracer solution (1.2 μM). The following melamine tracers were used:
Polyclonal anti-melamine antibody (Anti-Mel-Ab, 4.65 mg/ml, commercially available from Meridian Life Sciences Inc. (Biodesign) of Memphis, TN) was diluted in PBS and serially diluted to provide Anti-Mel-Ab solutions having Anti-Mel-Ab concentrations ranging from 0 to 300 nM. The melamine tracer solutions (5 μL) were mixed with each Anti-Mel-Ab solution (195 μl) in a 96 well black assay plate with non-binding surface (commercially available from Corning Inc. of Corning, NY) to provide solutions having different molar ratios of the Anti-Mel-Ab to the melamine tracer. The concentration of the melamine tracer was 30 nM. The plate was gently shaken for 30 min at room temperature. The fluorescence intensities of each solution was then measured using a fluorescence plate reader (Synergy 4 Microplate Reader, commercially available from BioTek Instruments, Inc. of Winooski, VT) using an excitation wavelength of 490 nm and reading the emission at 520 nm.
Unless otherwise indicated, an excitation wavelength of 490 nm and reading the emission at 520 nm were used throughout the examples. […]

anti-SDMA antibody = assay: SDMA dose response with SDMA tracer/SDMA antibody solution (Example 34); format: binding; settings: SDMA 0 to 100 μg/dL added to SDMA-DFF, SDMA-DCF or SDMA-Fl tracer/antibody solution
Procedure: Solutions of various SDMA tracers (SDMA-Fl, SDMA-DFF, and SDMA-DCF) in PBS (with 0.1% Tween) were prepared at a concentrations 400 nM. Solutions of anti-SDMA antibody or anti-SDMA antibody conjugated to BHQ10 (4 eq.) in PBS were prepared at concentrations of 400 and 800 nM, respectively.
SDMA standard solutions were prepared by serially diluting SDMA in PBS (with 0.1% Tween) to provide a final SDMA concentration of 100, 50, 25, 12,5, 6.26, 0 μg/dL.
50 μl of each SDMA standard solution was added to the well of a 96-well UV transparent plate. 50 μl of the SDMA tracer/SDMA antibody solution was then added to each well, the resulting solution mixed well by shaking, and incubated at room temperature for 30 min.

anti-T4-Mab [3] = assay: Fluorescence of T3-F and anti-T4-Mab after lyophilization (Example 22); settings: T3-F and/or anti-T4-Mab lyophilized to dryness, reconstituted in PBS or charcoal treated horse serum
Procedure: T3-F (1.7 mg) was dissolved in 0.85 ml DMSO to provide a stock solution (2 mM). The T3-F stock solution was then diluted in PBS to provide a 1 μM working solution that was separated into two vials (1 mL each). To the first vial was added PBS (9 mL) and to the second vial was added PBS (8.9 mL) plus anti-T4 Mab (15 μM, 0.1 mL). The vials were mixed well and incubated for 30 min at room temperature. The fluorescence intensities for each solution (200 μL) was determined. Aliquots of each solution (200 μL) were then placed into wells of a 96 well black assay plate and lyophilized to dryness. To the dried residues was added 200 μL PBS, horse serum that had been treated with charcoal (i.e., the serum was “charcoal stripped” by dialyzing the serum in PBS buffer containing charcoal for at least three buffer changes to remove small molecules from the serum), or horse serum that had been treated with charcoal containing T4 (10 μg/dL) and the plate incubated for 30 min at room temperature. Fluorescence intensities were then recorded again.

anti-T4-Mab [4] = assay: Fluorescence of T3 tracers and anti-T4-Mab in the presence of T4 (Example 20); format: binding
Procedure: Similar solutions were prepared and the fluorescence measured except that the T3-F was replaced with T3-5-F, T3-E-F and T3-FITC.

anti-T4 antibody = assay: Maximum percentage fluorescence quenching of T2-F, T3-F, T4-F by anti-T4 antibody with and without quencher label (Example 27 table); format: binding
Procedure: In another experiment, tracer T2-F, T3-F, or T4-F was dissolved in DMSO to provide a DMSO solution at a tracer concentration of 1 mM. The DMSO solution was then diluted with phosphate buffered saline (“PBS”) to provide a stock solution of each tracer at a concentration of 10 μM. Monoclonal anti-T4-Mab or anti-T4-Mab conjugated to a quencher (Cy3-Ab, IRdyeQC1-Ab, Cy5-Ab, BHQ1-Ab) were serially diluted in PBS to provide solutions having an Anti-T4-Mab or anti-T4-Mab conjugated to quencher at concentration ranging from 0 to 2 μM. In a 96 well black assay plate containing the serially diluted Anti-T4-Mab or anti-T4-Mab conjugated to quencher (95 μL) was added the tracer T2-F, T3-F, or T4-F solution (5 μL), mixed well, and incubated for 30 min and the fluorescence intensities then recorded at an excitation wavelength of 485 nm and an emission wavelength of 520 nm. The results of maximum percentage fluorescence quenching for different tracers and quencher-modified antibodies are provided in the following Table: […]

Compound: C[C@]12CCC(=NOCC(=O)NCc3c(O)ccc4c(-c5ccccc5C(=O)O)c5ccc(=O)cc-5oc34)C=C1CCC1C2[C@@H](O)C[C@@]2(C)C1CC[C@]2(O)C(=O)CO (stereo in doubt) [Cortisol-4-Fl]
fluorescence quenching on complex formation with cortisol antibody (α-cortisol antibodies): quenched

Compound: O=C(CCCCC1SCC2NC(=O)NC21)NCc1c(O)ccc2c(-c3ccccc3C(=O)O)c3ccc(=O)cc-3oc12 (stereo not shown) [Biotin-F, Biotin-Fluorescein]
quenching efficiency (streptavidin): 70%

Compound: C[C@H](CCC(=O)NCc1c(O)ccc2c(-c3ccccc3C(=O)O)c3ccc(=O)cc-3oc12)[C@H]1CC[C@H]2[C@@H]3[C@H](O)C[C@@H]4C[C@H](O)CC[C@]4(C)[C@H]3C[C@H](O)[C@]12C [CA-Fl, Cholic Acid-Fluorescein Conjugate]
fluorescence quenching on complex formation with α-Cholic Acid antibody (α-Cholic Acid antibody): quenched

Compound: CO/N=C(\C(=O)NC1C(=O)N2C(C(=O)NCc3c(O)ccc4c(-c5ccccc5C(=O)O)c5ccc(=O)cc-5oc34)=C(COC(C)=O)CSC12)c1csc(N)n1 (stereo not shown) [CEF-F, Cefotaxime-Fluorescein]
fluorescence quenching by anti-cefotaxime antibody [1]: quenched

Compound: Nc1nc(N)nc(NCc2c(O)ccc3c(-c4ccccc4C(=O)O)c4ccc(=O)cc-4oc23)n1 [Mel-F, Melamine-Fluorescein]
fluorescence of Mel-F after quenching by Anti-Mel-Ab relative to original value (Anti-Mel-Ab): about one-half of the original value | degree of fluorescence quenching compared to the other melamine tracers [2]: highest degree of quenching

Compound: C/N=C(\NC)NCCC[C@H](N)C(=O)O [SDMA, symmetrical dimethylarginine]
fluorescence intensity as a function of SDMA concentration (anti-SDMA antibody): a dose response is observed

assay performance after lyophilization of reagents (anti-T4-Mab [3]): effective
Compound: O=C(O)c1ccccc1-c1c2ccc(=O)cc-2oc2c(CNC(Cc3cc(I)c(Oc4ccc(O)c(I)c4)c(I)c3)C(=O)O)c(O)ccc12 (stereo not shown) [T3-F]
fluorescence quenching by anti-T4-Mab (anti-T4-Mab [4]; PBS, tracer and antibody equimolar): quenched | time to stable fluorescence signal (anti-T4-Mab [4]; quenching by anti-T4-Mab and recovery after addition of T4): ≤ 10 min | Percentage of fluorescence quenching, BHQ1-Ab (anti-T4 antibody; anti-T4-Mab conjugated to BHQ1): 30% | Percentage of fluorescence quenching, Cy5-Ab (anti-T4 antibody; anti-T4-Mab conjugated to Cy5): 40% | Percentage of fluorescence quenching, Ab (anti-T4 antibody; anti-T4-Mab without quencher): 30%
